Laboratory results as given in US8394952B2 (Vertex Pharmaceuticals Incorporated, priority 2006, dated 2013).
pKi: −log10 of the molar value.

Molecular target: Plk1 (Homo sapiens, UniProt P53350)
Assay: biochemical

Chain of Plk1 (P53350 20-338): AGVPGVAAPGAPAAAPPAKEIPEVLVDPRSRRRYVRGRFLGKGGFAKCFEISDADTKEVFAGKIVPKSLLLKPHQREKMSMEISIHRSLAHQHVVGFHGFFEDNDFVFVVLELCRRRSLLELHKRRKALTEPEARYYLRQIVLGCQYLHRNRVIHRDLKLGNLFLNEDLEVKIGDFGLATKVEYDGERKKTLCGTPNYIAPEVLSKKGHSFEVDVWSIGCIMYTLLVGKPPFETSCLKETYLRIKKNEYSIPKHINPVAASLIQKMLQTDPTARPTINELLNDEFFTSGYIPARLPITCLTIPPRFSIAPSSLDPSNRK

pKi	SMILES
7.00 to 8.00	CC(=O)Nc1c(F)ccc(Nc2ncc3c(n2)N(C2CCCC2)CC(C)(C)C(=O)N3C)c1F [Compound I-165, N-(3-(9-cyclopentyl-6,7,8,9-tetrahydro-5,7,7-trimethyl-6-oxo-5H-pyrimido[4,5-b][1,4]diazepin-2-ylamino)-2,6-difluorophenyl)acetamide]
7.00 to 8.00	CN1C(=O)C(C)(C)CN(C2CCCC2)c2nc(Nc3ccc4[nH]ncc4c3)ncc21 [Compound I-114, 2-(1H-indazo-5-ylamino)-9-cyclopentyl-8,9-dihydro-5,7,7-trimethyl-5H-pyrimido[4,5-b][1,4]diazepin-6(7H)-one]
> 8.00	CNC(=O)c1ccc(Nc2ncc3c(n2)N(C2CCC2)CC(C)(C)C(=O)N3C)c(OC)c1 [Compound I-167, 4-(9-cyclobutyl-6,7,8,9-tetrahydro-5,7,7-trimethyl-6-oxo-5H-pyrimido[4,5-b][1,4]diazepin-2-ylamino)-3-methoxy-N-methylbenzamide]
7.00 to 8.00	CN1C(=O)C(C)(C)CN(C2CCCC2)c2nc(Nc3cccc(NC(=O)CC(F)(F)F)c3)ncc21 [Compound I-145]
> 8.00	COc1cc(C2=NCCN2)ccc1Nc1ncc2c(n1)N(C1CCCC1)CC(C)(C)C(=O)N2C [Compound I-256, 9-cyclopentyl-2-(4-(4,5-dihydro-1H-imidazol-2-yl)-2-methoxyphenylamino)-5,7,7-trimethyl-8,9-dihydro-5H-pyrimido[4,5-b][1,4]diazepin-6(7H)-one]
> 8.00	COc1cc(C(=O)N[C@@H]2CCOC2)ccc1Nc1ncc2c(n1)N(C1CCCC1)CC(C)(C)C(=O)N2C [Compound I-187, (R)-4-(9-cyclopentyl-5,7,7-trimethyl-6-oxo-6,7,8,9-tetrahydro-5H-pyrimido[4,5-b][1,4]diazepin-2-ylamino)-3-methoxy-N-(tetrahydrofuran-3-yl)benzamide]
7.00 to 8.00	CNC(=O)c1ccc(Nc2ncc3c(n2)N(C2CCCC2)CC(C)(C)C(=O)N3C)c(OC(C)C)c1 [Compound I-50, 4-(9-cyclopentyl-6,7,8,9-tetrahydro-5,7,7-trimethyl-6-oxo-5H-pyrimido[4,5-b][1,4]diazepin-2-ylamino)-3-isopropoxy-N-methylbenzamide]
> 8.00	COc1cc(C(=O)N[C@H](CO)C(C)C)ccc1Nc1ncc2c(n1)N(C1CCCC1)CC(C)(C)C(=O)N2C [Compound I-239, (S)-4-(9-cyclopentyl-5,7,7-trimethyl-6-oxo-6,7,8,9-tetrahydro-5H-pyrimido[4,5-b][1,4]diazepin-2-ylamino)-N-(1-hydroxy-3-methylbutan-2-yl)-3-methoxybenzamide]
> 8.00	COc1cc(C(=O)NC2CCNCC2)ccc1Nc1ncc2c(n1)N(C1CCCC1)CCC(=O)N2C [Compound I-6, 4-(9-cyclopentyl-6,7,8,9-tetrahydro-5-methyl-6-oxo-5H-pyrimido[4,5-b][1,4]diazepin-2-ylamino)-3-methoxy-N-(piperidin-4-yl)benzamide]
> 8.00	COc1cc(C(=O)NCc2ccco2)ccc1Nc1ncc2c(n1)N(C1CCCC1)CC(C)(C)C(=O)N2C [Compound I-193, 4-(9-cyclopentyl-5,7,7-trimethyl-6-oxo-6,7,8,9-tetrahydro-5H-pyrimido[4,5-b][1,4]diazepin-2-ylamino)-N-(furan-2-ylmethyl)-3-methoxybenzamide]
> 8.00	COc1cc(C(=O)NCCN2CC[C@H](F)C2)ccc1Nc1ncc2c(n1)N(C1CCCC1)CC(C)(C)C(=O)N2C [Compound I-37, 4-(9-cyclopentyl-6,7,8,9-tetrahydro-5,7,7-trimethyl-6-oxo-5H-pyrimido[4,5-b][1,4]diazepin-2-ylamino)-N-(2-((S)-3-fluoropyrrolidin-1-yl)ethyl)-3-methoxybenzamide]
> 8.00	COc1cc(C(=O)NCCC(F)(F)F)ccc1Nc1ncc2c(n1)N(C1CCCC1)CC(C)(C)C(=O)N2C [Compound I-132, 4-(9-cyclopentyl-6,7,8,9-tetrahydro-5,7,7-trimethyl-6-oxo-5H-pyrimido[4,5-b][1,4]diazepin-2-ylamino)-N-(3,3,3-trifluoropropyl)-3-methoxybenzamide]
7.00 to 8.00	CN1C(=O)C(C)(C)CN(C2CCCC2)c2nc(Nc3ccccc3)ncc21 [Compound I-90, 9-cyclopentyl-8,9-dihydro-5,7,7-trimethyl-2-(phenylamino)-5H-pyrimido[4,5-b][1,4]diazepin-6(7H)-one]
> 8.00	CN1C(=O)C(C)(C)CN(C2CCCC2)c2nc(Nc3ccc4[nH]c(=O)[nH]c4c3)ncc21 [Compound I-108, 2-(2,3-dihydro-2-oxo-1H-benzo[d]imidazol-6-ylamino)-9-cyclopentyl-8,9-dihydro-5,7,7-trimethyl-5H-pyrimido[4,5-b][1,4]diazepin-6(7H)-one]
> 8.00	COc1cc(C(=O)Nc2cc(C)ns2)ccc1Nc1ncc2c(n1)N(C1CCCC1)CC(C)(C)C(=O)N2C [Compound I-232, 4-(9-cyclopentyl-5,7,7-trimethyl-6-oxo-6,7,8,9-tetrahydro-5H-pyrimido[4,5-b][1,4]diazepin-2-ylamino)-3-methoxy-N-(3-methylisothiazol-5-yl)benzamide]
> 8.00	COc1cc(C(=O)N[C@H]2CC[C@@H](F)CC2)ccc1Nc1ncc2c(n1)N(C1CCCC1)CC(C)(C)C(=O)N2C [Compound I-267, 4-(9-cyclopentyl-5,7,7-trimethyl-6-oxo-6,7,8,9-tetrahydro-5H-pyrimido[4,5-b][1,4]diazepin-2-ylamino)-N-((1S,4S)-4-fluorocylohexyl)-3-methoxybenzamide]
> 8.00	COc1cc(C(=O)NC2CCOCC2)ccc1Nc1ncc2c(n1)N(C1CCCC1)CC(C)(C)C(=O)N2C [Compound I-134, 4-(9-cyclopentyl-6,7,8,9-tetrahydro-5,7,7-trimethyl-6-oxo-5H-pyrimido[4,5-b][1,4]diazepin-2-ylamino)-N-(tetrahydro-2H-pyran-4-yl)-3-methoxybenzamide]
> 8.00	COc1cc(C(=O)NC2CC(C)(C)N(C)C(C)(C)C2)ccc1Nc1ncc2c(n1)N(C1CCCC1)CC(C)(C)C(=O)N2C [Compound I-68, 4-(9-cyclopentyl-6,7,8,9-tetrahydro-5,7,7-trimethyl-6-oxo-5H-pyrimido[4,5-b][1,4]diazepin-2-ylamino)-3-methoxy-N-(1,2,2,6,6-pentamethylpiperidin-4-yl)-benzamide]
7.00 to 8.00	CN1C(=O)C(C)(C)CN(C2CCCC2)c2nc(Nc3ccc(CN4CCOCC4)cc3)ncc21 [Compound I-86]
7.00 to 8.00	COc1cc(C(=O)O)ccc1Nc1ncc2c(n1)N(C1CCCC1)CC(C)(C)C(=O)N2C [Compound I-120, 4-(9-cyclopentyl-6,7,8,9-tetrahydro-5,7,7-trimethyl-6-oxo-5H-pyrimido[4,5-b][1,4]diazepin-2-ylamino)-3-methoxybenzoic acid]
7.00 to 8.00	COc1cc(C(=O)N2CCNCC2)ccc1Nc1ncc2c(n1)N(C1CCCC1)CCC(=O)N2C [Compound I-8, 4-(9-cyclopentyl-6,7,8,9-tetrahydro-5-methyl-6-oxo-5H-pyrimido[4,5-b][1,4]diazepin-2-ylamino)-3-methoxyphenyl(piperazin-1-yl)methanone]
> 8.00	COc1cc(C(=O)NC[C@@H]2CC[C@@H](O)C2)ccc1Nc1ncc2c(n1)N(C1CCCC1)CC(C)(C)C(=O)N2C [Compound I-259, 4-(9-cyclopentyl-5,7,7-trimethyl-6-oxo-6,7,8,9-tetrahydro-5H-pyrimido[4,5-b][1,4]diazepin-2-ylamino)-N-((1R,3R)-3-(hydroxycyclopentyl)methyl)-3-methoxybenzamide]
7.00 to 8.00	COc1ccccc1Nc1ncc2c(n1)N(C1CCCC1)CC(C)(C)C(=O)N2C [Compound I-102, 2-(2-methoxyphenylamino)-9-cyclopentyl-8,9-dihydro-5,7,7-trimethyl-5H-pyrimido[4,5-b][1,4]diazepin-6(7H)-one]
> 8.00	COc1cc(C(=O)NCc2ccco2)ccc1Nc1ncc2c(n1)N(C1CCCC1)CC1(CC1)C(=O)N2C [Compound I-248, 4-(9′-cyclopentyl-5′-methyl-6′-oxo-5′,6′,8′,9′-tetrahydrospiro[cyclopropane-1,7′-pyrimido[4,5-b][1,4]diazepine]-2′-ylamino)-N-(furan-2-ylmethyl)-3-methoxybenzamide]
7.00 to 8.00	CN1C(=O)CCN(C2CCCC2)c2nc(Nc3ccc(C(=O)O)cc3)ncc21 [Compound I-3, 4-(9-Cyclopentyl-6,7,8,9-tetrahydro-5-methyl-6-oxo-5H-pyrimido[4,5-b][1,4]diazepin-2-ylamino)-benzoic acid]
7.00 to 8.00	CN1C(=O)C(C)(C)CN(C2CCCC2)c2nc(Nc3cccc(NC(=O)C4CCC4)c3)ncc21 [Compound I-151, N-(3-(9-cyclopentyl-6,7,8,9-tetrahydro-5,7,7-trimethyl-6-oxo-5H-pyrimido[4,5-b][1,4]diazepin-2-ylamino)phenyl)cyclobutanecarboxamide]
> 8.00	COc1cc(C(=O)N[C@H]2CCOC2)ccc1Nc1ncc2c(n1)N(C1CCCC1)C[C@@H](C)C(=O)N2C [Compound I-183, 4-((R)-9-cyclopentyl-5,7-dimethyl-6-oxo-6,7,8,9-tetrahydro-5H-pyrimido[4,5-b][1,4]diazepin-2-ylamino)-3-methoxy-N—((S)-tetrahydrofuran-3-yl)benzamide]
> 8.00	COc1cc(C(=O)NC2CC2)ccc1Nc1ncc2c(n1)N(C1CCCC1)C[C@@H](C)C(=O)N2C [Compound I-184, (R)-4-(9-cyclopentyl-5,7-dimethyl-6-oxo-6,7,8,9-tetrahydro-5H-pyrimido[4,5-b][1,4]diazepin-2-ylamino)-N-cyclopropyl-3-methoxybenzamide]
> 8.00	COCC(=O)Nc1ccc(Nc2ncc3c(n2)N(C2CCCC2)CC(C)(C)C(=O)N3C)c(OC)c1 [Compound I-104, N-(4-(9-cyclopentyl-5,7,7-trimethyl-6-oxo-6,7,8,9-tetrahydro-5H-pyrimido[4,5-b][1,4]diazepin-2-ylamino)-3-methoxyphenyl)-2-methoxyacetamide]
> 8.00	CNC(=O)c1ccc(Nc2ncc3c(n2)N(C2CCCC2)CC(C)(C)C(=O)N3C)c(OC)c1 [Compound I-16, 4-(9-cyclopentyl-6,7,8,9-tetrahydro-5,7,7-trimethyl-6-oxo-5H-pyrimido[4,5-b][1,4]diazepin-2-ylamino)-3-methoxy-N-methylbenzamide]
